From PubChem BioAssay AID1259407 (Chemical Carcinogenesis Research Information System (CCRIS), 2018)
Calls of active or inactive are those of the source. How the calls were made is not given here.

Tested on: CCRIS mutagenicity, Ames/micronucleus/aberration tests
Experiment: CCRIS mutagenicity studies

Measured: mutagenic call

CCCCC(CC)COC(=O)c1ccccc1C(=O)OCC(CC)CCCC (stereo not drawn)
inactive: End Point: IN VITRO MICRONUCLEUS, Test System: V79 CELLS, Metabolic Activation: NONE inactive; negative | End Point: IN VITRO MICRONUCLEUS, Test System: V79 CELLS, Metabolic Activation: RAT, LIVER, S-9, AROCLOR 1254 inactive; negative | End Point: IN VIVO MICRONUCLEUS, Test System: HEPATOCYTES, Species: RAT, Strain/Sex: FISHER 344 OR SD/MALE, Route: ORAL OR IP inactive; negative | End Point: IN VIVO MICRONUCLEUS, Test System: PERIPHERAL BLOOD RETICULOCYTES, Species: RAT, Strain/Sex: FISHER 344 OR SD/MALE, Route: ORAL OR IP inactive; negative | Test System: AMES SALMONELLA TYPHIMURIUM, Strain/Indicator: TA97, Metabolic Activation: HAMSTER LIVER S-9, AROCLOR 1254 (10 OR 30%), Method: PREINCUBATION inactive; negative | Test System: AMES SALMONELLA TYPHIMURIUM, Strain/Indicator: TA97, Metabolic Activation: NONE, Method: PREINCUBATION inactive; negative | Test System: AMES SALMONELLA TYPHIMURIUM, Strain/Indicator: TA97, Metabolic Activation: NONE, Method: STANDARD PLATE inactive; negative | Test System: AMES SALMONELLA TYPHIMURIUM, Strain/Indicator: TA97, Metabolic Activation: RAT LIVER S-9, AROCLOR 1254 (10 OR 30%), Method: PREINCUBATION inactive; negative | Test System: AMES SALMONELLA TYPHIMURIUM, Strain/Indicator: TA97, Metabolic Activation: S-9, Method: STANDARD PLATE inactive; negative | Test System: AMES SALMONELLA TYPHIMURIUM, Strain/Indicator: TA98, Metabolic Activation: HAMSTER LIVER S-9, AROCLOR 1254 (10 OR 30%), Method: PREINCUBATION inactive; negative | Test System: AMES SALMONELLA TYPHIMURIUM, Strain/Indicator: TA98, Metabolic Activation: HAMSTER, LIVER, S-9, AROCLOR 1254 (10%), Method: PREINCUBATION inactive; negative | Test System: AMES SALMONELLA TYPHIMURIUM, Strain/Indicator: TA98, Metabolic Activation: NONE, Method: FLUCTUATION (MICROTITER) inactive; negative | Test System: AMES SALMONELLA TYPHIMURIUM, Strain/Indicator: TA98, Metabolic Activation: NONE, Method: STANDARD PLATE inactive; negative | Test System: AMES SALMONELLA TYPHIMURIUM, Strain/Indicator: TA98, Metabolic Activation: RAT LIVER S-9, AROCLOR 1254 (10 OR 30%), Method: PREINCUBATION inactive; negative | Test System: AMES SALMONELLA TYPHIMURIUM, Strain/Indicator: TA98, Metabolic Activation: RAT LIVER S-9, AROCLOR 1254, Method: FLUCTUATION (MICROTITER) inactive; negative | Test System: AMES SALMONELLA TYPHIMURIUM, Strain/Indicator: TA98, Metabolic Activation: RAT LIVER S-9, PHENOBARBITAL AND BETA-NAPHTHOFLAVONE, Method: PREINCUBATION inactive; negative | Test System: AMES SALMONELLA TYPHIMURIUM, Strain/Indicator: TA98, Metabolic Activation: RAT, LIVER, S-9, AROCLOR 1254 (10%), Method: PREINCUBATION inactive; negative | Test System: AMES SALMONELLA TYPHIMURIUM, Strain/Indicator: TA98, Metabolic Activation: RAT, LIVER, S-9, AROCLOR 1254, Method: STANDARD PLATE inactive; negative | Test System: AMES SALMONELLA TYPHIMURIUM, Strain/Indicator: TA98, Metabolic Activation: S-9, Method: STANDARD PLATE inactive; negative | Test System: AMES SALMONELLA TYPHIMURIUM, Strain/Indicator: TA100, Metabolic Activation: HAMSTER LIVER S-9, AROCLOR 1254 (10 OR 30%), Method: PREINCUBATION inactive; negative | Test System: AMES SALMONELLA TYPHIMURIUM, Strain/Indicator: TA100, Metabolic Activation: HAMSTER, LIVER, S-9, AROCLOR 1254 (10%), Method: PREINCUBATION inactive; negative | Test System: AMES SALMONELLA TYPHIMURIUM, Strain/Indicator: TA100, Metabolic Activation: NONE, Method: STANDARD PLATE inactive; negative | Test System: AMES SALMONELLA TYPHIMURIUM, Strain/Indicator: TA100, Metabolic Activation: RAT LIVER S-9, AROCLOR 1254 (10 OR 30%), Method: PREINCUBATION inactive; negative | Test System: AMES SALMONELLA TYPHIMURIUM, Strain/Indicator: TA100, Metabolic Activation: RAT LIVER S-9, PHENOBARBITAL AND BETA-NAPHTHOFLAVONE, Method: PREINCUBATION inactive; negative | Test System: AMES SALMONELLA TYPHIMURIUM, Strain/Indicator: TA100, Metabolic Activation: RAT, LIVER, S-9, AROCLOR 1254 (10%), Method: PREINCUBATION inactive; negative | Test System: AMES SALMONELLA TYPHIMURIUM, Strain/Indicator: TA100, Metabolic Activation: RAT, LIVER, S-9, AROCLOR 1254, Method: STANDARD PLATE inactive; negative | Test System: AMES SALMONELLA TYPHIMURIUM, Strain/Indicator: TA100, Metabolic Activation: S-9, Method: STANDARD PLATE inactive; negative | Test System: AMES SALMONELLA TYPHIMURIUM, Strain/Indicator: TA102, Metabolic Activation: CO631 CELLS, Method: STANDARD PLATE inactive; negative | Test System: AMES SALMONELLA TYPHIMURIUM, Strain/Indicator: TA102, Metabolic Activation: NONE, Method: STANDARD PLATE inactive; negative | Test System: AMES SALMONELLA TYPHIMURIUM, Strain/Indicator: TA102, Metabolic Activation: PANCREATIN, Method: STANDARD PLATE inactive; negative | Test System: AMES SALMONELLA TYPHIMURIUM, Strain/Indicator: TA102, Metabolic Activation: PORCINE, PANCREAS, LIPASES, Method: STANDARD PLATE inactive; negative | Test System: AMES SALMONELLA TYPHIMURIUM, Strain/Indicator: TA102, Metabolic Activation: RAT HEPATOCYTES, Method: STANDARD PLATE inactive; negative | Test System: AMES SALMONELLA TYPHIMURIUM, Strain/Indicator: TA102, Metabolic Activation: RAT LIVER S-9, PHENOBARBITAL AND 5,6-BENZOFLAVONE, Method: STANDARD PLATE inactive; negative | Test System: AMES SALMONELLA TYPHIMURIUM, Strain/Indicator: TA102, Metabolic Activation: S-9, Method: STANDARD PLATE inactive; negative | Test System: AMES SALMONELLA TYPHIMURIUM, Strain/Indicator: TA1535, Metabolic Activation: HAMSTER LIVER S-9, AROCLOR 1254 (10 OR 30%), Method: PREINCUBATION inactive; negative | Test System: AMES SALMONELLA TYPHIMURIUM, Strain/Indicator: TA1535, Metabolic Activation: HAMSTER, LIVER, S-9, AROCLOR 1254 (10%), Method: PREINCUBATION inactive; negative | Test System: AMES SALMONELLA TYPHIMURIUM, Strain/Indicator: TA1535, Metabolic Activation: NONE, Method: STANDARD PLATE inactive; negative | Test System: AMES SALMONELLA TYPHIMURIUM, Strain/Indicator: TA1535, Metabolic Activation: RAT LIVER S-9, AROCLOR 1254 (10 OR 30%), Method: PREINCUBATION inactive; negative
